Assay [1] relates to multi-cellular tumor spheroids. The settings on record: microbubble well array based perfusion system; cited from earlier work.
Assay [2] relates to cutaneous squamous cell carcinoma cell colonies (SCC cells). The experiment in a line: Drug resistance screen of squamous carcinoma cell colonies in microbubble well arrays, CalceinAM/PI live/dead staining. It is filed as cell-based. On the procedure: To enrich for the sphere cells, established colonies were cultured in the presence of a chemotherapeutic agent (e.g. Cisplatin). Traditional chemotherapeutic agents work by killing rapidly dividing cells, one of the main properties of most cancer cells. This means that chemotherapy also harms cells that divide rapidly under normal circumstances. Most chemotherapeutic drugs work by impairing mitosis (cell division), effectively targeting fast-dividing cells and inducing apoptosis. After Day 7 the cell culture media was changed and 10 uM or 10 nM cisplatin and incubated for 2 to 7 days, respectively. After which the chips were transferred into fresh media prior to a live/dead staining with CalceinAM/PI followed by stem cell marker analysis.

Entries after “also recorded” stand apart in the source; their conditions may differ.

`COc1cccc2c1C(=O)c1c(O)c3c(c(O)c1C2=O)C[C@@](O)(C(=O)CO)C[C@@H]3O[C@H]1C[C@H](N)[C@H](O)[C@H](C)O1` [doxorubicin]: in assay [1], the “resistance of spheroid cells versus adherent cells to treatment” value was “spheroid cells are more resistant to doxorubicin treatment than adherent cells”.

`N.N.[Cl][Pt][Cl]` [Cisplatin]: in assay [2] (10 μM Cisplatin for 48 hr, CalceinAM (live) / propidium iodide (dead) staining, colonies from one or two cells per MB well), the “surviving sphere cells as share of initial cells seeded in the MB well array” value was about 5%. Also, the “drug resistance of spheroid versus spread cell morphology (live/dead staining)” value in assay [2] (established colonies, 10 uM or 10 nM cisplatin for 2 to 7 days, respectively, CalceinAM/PI) was “the spheroid cells have greater resistance in response to chemo drug than the spread cell; also recorded: sphere cells exhibit drug resistance”.
